Experimental findings from patent US20260297060A1, “COMPOUNDS FOR THE DEGRADATION OF MUTANT BRAF” (C4 THERAPEUTICS, INC., priority 2023, published 2026) are described below.

Assay [1] deals with A375 human melanoma xenografts. The assay can be described thus: In vivo therapeutic efficacy in A375 human melanoma xenografts (tumor volume, T/C, TGI), Example 14. On the set-up: species or system human tumor in female BALB/c nude mice. The note with it: for Tumor volume: 100 mg/kg p.o. QD x 21 days. On the procedure: Agents were tested in the A375 human melanoma xenografts. Compound 26 and Compound 141 were administered to BALB/c nude mice bearing A375 tumors from PG-DO and dosed via PO twice a day (BID) or third a day (TIP) or dosed P daily (QD) from PG-D. Dabrafenib was administered to BALB/c nude mice bearing A375 tumors from PG-D1 and dosed via P daily (QD). Compound 26 was dosed at 1.5 mg/kg (QD), 2 mg/kg (TID), 3 mg/kg (BID), 6 mg/kg (QD) and 10 mg/kg (BID) for 21 days. Compound 141 was dosed at 0.75 mg/kg (BID), 1 mg/kg (TID), 1.5 mg/kg (BID), 3 mg/kg (QD) and 5 mg/kg (BID) for 21 days. Dabrafenib was dosed at 100 mg/kg for 21 days. This study was non-GLP.
One hundred and thirty-eight female BALB/c nude Mus Musculus mice procured from Shanghai Lingchang Biological Science and Technology Co., LTD between the ages of six to eight weeks and with body weight between eighteen and twenty-two grams were used for the study. A spare mouse was also procured.
The A375 tumor cells were maintained in vitro in DMEM medium supplemented with 10% fetal bovine serum and 1% Penicillin-Streptomycin at 37° C. in an atmosphere of 5% CO2 in air. The tumor cells were routinely sub-cultured twice weekly. The cells growing in an exponential growth phase were harvested and counted for tumor inoculation.
Each mouse was inoculated subcutaneously at the right flank with A375 cells (5×10^6) in 0.2 mL of PBS supplemented with Matrigel (PBS: Matrigel=1:1) for tumor development. Animals were grouped for efficacy study on day 15 after tumor inoculation when the average tumor volume reached 220 mm^3. The test articles administration and the animal numbers in each group are shown in the above experimental Table 75.
At the time of routine monitoring, the animals were checked daily for any effects of tumor growth and treatments on normal behavior such as mobility, food and water consumption (by looking only), body weight gain/loss (body weights were measured twice weekly), eye/hair matting and any other abnormal effect as stated in the protocol. Death and observed clinical signs were recorded on the basis of the numbers of animals within each subset.
(§1) Prior to the onset of drug treatment, mice were measured for tumor size in two dimensions using a caliper, and the tumor volume (mm^3) was calculated using formula V=0.5 a×b^2 where a and b are the long and short diameters of the tumor in mm, respectively. Mice were randomized into different treatment groups based on the tumor volume.
(§2) The major endpoint was to see if the tumor growth could be delayed or mice could be cured. The tumor size was then used for calculations of T/C value. The T/C value (in percent) is an indication of antitumor effectiveness; T and C are the mean volumes of the treated and control groups, respectively on specified day.
(§3) TGI was calculated for each group using the formula: TGI (%)=[1−(Ti−T0)/(Ci−C0)]×100; Ti is the average tumor volume of a treatment group on a given day, T0 is the average tumor volume of the treatment group on the day of treatment start, Ci is the average tumor volume of the vehicle control group on the same day with Ti, and C0 is the average tumor volume of the vehicle group on the day of treatment start.
A one-way ANOVA followed by Dunnett's multiple comparison test was performed to compare tumor volume among vehicle group (Group 1) and treatment groups (Group 2-Group 12). All data were analyzed using GraphPad Prism, ns indicates p>0.05, * indicates p<0.05, ** indicates p<0.01, *** indicates p<0.001 and **** indicates p<0.0001.
Tumor growth inhibition of Compound 26, Compound 141 and dabrafenib in the treatment of female BALB/c nude mice bearing A375 xenografts was calculated based on tumor volume measured on […]. TGI and T/C were calculated respectively and the data are detailed in Table 82.

For assay [2], the system named is A375 human melanoma xenografts. The assay can be described thus: Example 8 efficacy study in A375 human melanoma xenografts (tumor volume, T/C, TGI). The note with it: 35 mg/kg, p.o., QD × 21 days. The assay is classed as in vivo, BALB/c nude mice. On the procedure:
For efficacy study, agents were tested in the A375 human melanoma xenografts model. Compound 8, Compound 26, and Compound 38 were administered to BALB/c nude mice bearing A375 xenografts from day 0 and dosed p.o. twice per day (BID). Compound 8 and Compound 26 were dosed at 10 mg/kg for 21 days. Compound 38 was dosed at 10 mg/kg for 10 days. The known BRAF inhibitor encorafenib was used as a positive control. encorafenib was administered from day 1 and dosed p.o. daily (QD) for 21 days and dosed at 35 mg/kg.
The A375 tumor cells were maintained in vitro in DMEM medium supplemented with […] and 1% Penicillin-Streptomycin at 37° C. in an atmosphere of 5% CO2 in air. The tumor cells were routinely subcultured twice weekly. The cells growing in an exponential growth phase were harvested and counted for tumor inoculation.
Each mouse was inoculated subcutaneously at the right flank with A375 cells (5×10^6) in 0.2 mL of PBS supplemented with Matrigel (PBS:Matrigel=1:1) for tumor development. Animals were grouped for treatment 16 days after tumor inoculation when the average tumor volume reached 234 mm^3 for efficacy study and 382 mm^3 for PKPD study. The test articles administration and the animal numbers in each group are shown in the above experimental tables.
as §1, §2, §3
(In general: A xenograft is tissue or cells of one species grown in another, often human tumour cells in immunodeficient mice.)

The mark [3] stands for this setting: 100 mg/kg, p.o., QD × 21 days, PG-D21.

Each structure is given as a SMILES string.

A word on the T/C: it is the ratio of treated to control. The term TGI denotes how far tumour growth fell short of that in controls.

For the compound `CC(C)(C)c1nc(-c2cccc(NS(=O)(=O)c3c(F)cccc3F)c2F)c(-c2ccnc(N)n2)s1` [Dabrafenib, dabrafenib, reference compound], the Tumor volume in assay [1] (day 0, mean ± SEM) amounted to 220 ± 15 mm^3; in assay [1] (day 4, mean ± SEM) it was 367 ± 24 mm^3; in assay [1] (day 7, mean ± SEM), 421 ± 28 mm^3; in assay [1] (day 11, mean ± SEM) it was 560 ± 38 mm^3; in assay [1] (day 14, mean ± SEM), 756 ± 54 mm^3; in assay [1] (day 18, mean ± SEM) it was 1031 ± 79 mm^3. For the same compound, the Tumor volume was 1095 ± 86 mm^3 in assay [1] (day 21, mean ± SEM); 1007 ± 137 mm^3 in assay [1] (day 25 (dosing-free regrowth), mean ± SEM); 1366 ± 209 mm^3 in assay [1] (day 28 (dosing-free regrowth), mean ± SEM); 1679 ± 323 mm^3 in assay [1] (day 32 (dosing-free regrowth), mean ± SEM); 1711 ± 245 mm^3 in assay [1] (day 35 (dosing-free regrowth), mean ± SEM); 2116 ± 279 mm^3 in assay [1] (day 39 (dosing-free regrowth), mean ± SEM). Besides, the Tumor volume in assay [1] (day 42 (dosing-free regrowth), mean ± SEM) is reported as 2634 ± 337 mm^3; in assay [1] (day 46 (dosing-free regrowth), mean ± SEM), 2535 ± 321 mm^3; in assay [1] (day 49 (dosing-free regrowth), mean ± SEM), 3163 ± 478 mm^3; in assay [1] (day 53 (dosing-free regrowth)), 3001 mm^3. For the same compound, the “Tumor Size on PG-D21 (Mean ± SEM)” value in assay [1] (100 mg/kg p.o. QD × 21 days) worked out at 1095 ± 86 mm^3. In assay [1] (setting [3]), this compound came in with a T/C of 58.1%. The compound further displayed an inhibition of tumour growth (TGI) in assay [1] (setting [3]) of 47.4%.

Consider `COC(=O)N[C@@H](C)CNc1nccc(-c2cn(C(C)C)nc2-c2cc(Cl)cc(NS(C)(=O)=O)c2F)n1` [Encorafenib, encorafenib, reference compound], for which the T/C in assay [2] (PG-D21) is listed as 14.94%. This compound also came in with a TGI in assay [2] (PG-D21) of 98.67%. The “Tumor Size on PG-D21 (Mean ± SEM)” value in assay [2] (PG-D21) was determined as 254 ± 19 mm^3. Moreover, the “Tumor Volume (mean ± SEM)” value came to 234 ± 6 mm^3 in assay [2] (day 0); 329 ± 17 mm^3 in assay [2] (day 3); 347 ± 21 mm^3 in assay [2] (day 6); 251 ± 20 mm^3 in assay [2] (day 9); 194 ± 16 mm^3 in assay [2] (day 13); 194 ± 15 mm^3 in assay [2] (day 17). Also, in assay [2] (day 21), the “Tumor Volume (mean ± SEM)” value is 254 ± 19 mm^3.
